Each structure is given as a SMILES string. Where a name gives a salt, the structure may show the parent alone.

One data set has as its target T1, Human 5-HT6 receptor (Homo sapiens, UniProt P50406).
T1 construct: expressed in transfected cells; host or cells: HEK293
Nature of the data set: Binding assay for human 5-HT6 receptor ([3H] LSD radioligand). To be noted: [3H] LSD 1.5 nM, human recombinant receptor in HEK293 cells; for inhibition at 0.1 µM: read-out: % Inhibition of specific binding at 100 nM. The method, then: Binding Assay for Human 5-HT6 Receptor
Compounds can be tested according to the following the procedures. Materials and Methods:
Receptor source: Human recombinant expressed in HEK293 cells
Radioligand: [^3H] LSD (60-80 Ci/mmol)
Final ligand concentration—[1.5 nM]
Non-specific determinant: Methiothepin mesylate—[0.1 μM]
Reference compound: Methiothepin mesylate
Positive control: Methiothepin mesylate
Reactions were carried out in […] TRIS-HCl (pH 7.4) containing 10 μM MgCl2, 0.5 mM EDTA for 60 minutes at 37° C. The reaction was terminated by rapid vacuum filtration onto glass fiber filters. Radioactivity trapped onto the filters was determined and compared to control values in order to ascertain any interactions of test compound(s) with the cloned serotonin 5-HT6binding site.
Literature Reference: Monsma F. J. Jr., et al., Molecular Cloning and Expression of Novel Serotonin Receptor with High Affinity for Tricyclic Psychotropic Drugs. Mol. Pharmacol. (43): 320-327 (1993).

T1 sequence (P50406 whole entry): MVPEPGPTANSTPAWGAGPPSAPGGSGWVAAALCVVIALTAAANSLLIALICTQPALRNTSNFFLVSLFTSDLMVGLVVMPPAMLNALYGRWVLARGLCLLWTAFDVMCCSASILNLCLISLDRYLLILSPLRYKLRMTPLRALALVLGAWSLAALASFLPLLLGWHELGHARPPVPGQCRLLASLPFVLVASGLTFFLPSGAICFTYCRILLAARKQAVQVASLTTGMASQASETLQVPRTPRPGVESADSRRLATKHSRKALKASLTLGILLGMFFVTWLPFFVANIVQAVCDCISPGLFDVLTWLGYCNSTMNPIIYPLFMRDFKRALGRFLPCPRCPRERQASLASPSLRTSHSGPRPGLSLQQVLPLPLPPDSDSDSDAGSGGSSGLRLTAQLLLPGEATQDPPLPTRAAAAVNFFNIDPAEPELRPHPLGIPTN

Molecule `CN1CCN(Cc2cc(S(=O)(=O)n3ccc4cc(Br)ccc43)ccc2Cl)CC1.Cl.Cl` returned a melting point of 214.7 to 215.6 °C.

Consider `CCN1CCCN(Cc2cc(S(=O)(=O)n3cc(C)c4ccccc43)ccc2Cl)CC1` [Example 45, 1-[4-Chloro-3-(4-ethyl-[1,4]diazepan-1-ylmethyl)benzenesulfonyl]-3-methyl-1H-indole dihydrochloride], for which, on Human 5-HT6 receptor (100 nM test compound), the inhibition at 0.1 µM turned out to be 98.5%.

Molecule `CCN1CCN(Cc2cc(S(=O)(=O)n3ccc4cc(Br)ccc43)ccc2Cl)CC1.Cl.Cl` [Example 29, 1-[4-Chloro-3-(4-ethylpiperazin-1-ylmethyl)benzenesulfonyl]-5-bromo-1H-indole dihydrochloride] had a melting point of 208.6 to 212.8 °C. In addition, the inhibition at 0.1 µM on Human 5-HT6 receptor (100 nM test compound) came to 71.8%.

For the molecule `CCN1CCN(Cc2cc(S(=O)(=O)n3cc(Br)c4cc(OC)ccc43)ccc2Cl)CC1.Cl.Cl`, the melting point lay in the range of 216.9 to 219.7 °C.

`CN1CCN(Cc2cc(S(=O)(=O)n3ccc4ccccc43)ccc2Br)CC1.Cl.Cl` [Example 21, 1-[4-Bromo-3-(4-methylpiperazin-1-ylmethyl)benzenesulfonyl]-1H-indole dihydrochloride] showed a melting point of 214.1 to 216 °C. The inhibition at 0.1 µM at Human 5-HT6 receptor (100 nM test compound) was 88.8%.

`COc1ccc2c(c1)c(Br)cn2S(=O)(=O)c1ccc(Cl)c(CN2CCN(C)CC2)c1.Cl.Cl` gave a melting point of 195.4 to 199.3 °C.

For `Cc1cn(S(=O)(=O)c2ccc(Br)c(CN3CCN(C)CC3)c2)c2ccccc12.Cl.Cl` [Example 38, 1-[4-Bromo-3-(4-methylpiperazin-1-ylmethyl)benzenesulfonyl]-3-methyl-1H-indole dihydrochloride], the melting point was 210.5 to 213 °C. At Human 5-HT6 receptor, the Ki was determined as 9.11 nM.

For the molecule `CCN1CCN(Cc2cc(S(=O)(=O)n3cc(C)c4cc(OC)ccc43)ccc2Br)CC1.Cl.Cl`, the melting point lay in the range of 211.3 to 212.1 °C.

The molecule `CCN1CCN(Cc2cc(S(=O)(=O)n3ccc4cc(F)ccc43)ccc2Br)CC1` [Example 4, 1-[4-Bromo-3-(4-ethylpiperazin-1-ylmethyl)benzenesulfonyl]-5-fluoro-1H-indole] returned a melting point of 92.2 to 93.9 °C. The inhibition at 0.1 µM on Human 5-HT6 receptor (100 nM test compound) was found to be 62.5%.

For the molecule `COc1ccc2c(c1)c(C)cn2S(=O)(=O)c1ccc(Br)c(CN2CCN(C)CC2)c1.Cl.Cl`, the melting point lay within 214.3 to 215.7 °C.

With `Cc1ccc(S(=O)(=O)n2ccc3cc(F)ccc32)cc1CN1CCN(C)CC1.Cl.Cl` [Example 43, 1-[4-Methyl-3-(4-methylpiperazin-1-ylmethyl)benzenesulfonyl]-5-fluoro-1H-indole dihydrochloride], the melting point was 220.3 to 223.4 °C. Further, at Human 5-HT6 receptor (100 nM test compound), the inhibition at 0.1 µM is 86.2%.

Take `CCN1CCN(Cc2cc(S(=O)(=O)n3ccc4cc(F)ccc43)ccc2C)CC1.Cl.Cl` [Example 44, 1-[4-Methyl-3-(4-ethylpiperazin-1-ylmethyl)benzenesulfonyl]-5-fluoro-1H-indole dihydrochloride]: the melting point is 203.4 to 206.2 °C. For the same molecule, the inhibition at 0.1 µM at Human 5-HT6 receptor (100 nM test compound) was 78.5%.

In turn, `CCN1CCN(Cc2cc(S(=O)(=O)n3cc(C)c4cc(OC)ccc43)ccc2C)CC1.Cl.Cl` returned a melting point of 226.99 °C.

The molecule `CCN1CCN(Cc2cc(S(=O)(=O)n3ccc4cc(F)ccc43)ccc2Cl)CC1.Cl.Cl` [Example 25, 1-[4-Chloro-3-(4-ethylpiperazin-1-ylmethyl)benzenesulfonyl]-5-fluoro-1H-indole dihydrochloride] showed a melting point of 204.1 to 205.5 °C. For the same molecule, the inhibition at 0.1 µM at Human 5-HT6 receptor (100 nM test compound) worked out at 64.8%.

Molecule `CN1CCN(Cc2cc(S(=O)(=O)n3ccc4ccccc43)ccc2Cl)CC1.Cl.Cl` [Example 13, 1-[4-Chloro-3-(4-methylpiperazin-1-ylmethyl)benzenesulfonyl]-1H-indole dihydrochloride] gave a melting point of 210.6 to 213.9 °C. The inhibition at 0.1 µM on Human 5-HT6 receptor (100 nM test compound) turned out to be 83.3%.

`Cc1cn(S(=O)(=O)c2ccc(Cl)c(CN3CCCN(C)CC3)c2)c2ccccc12` [Example 46, 1-[4-Chloro-3-(4-methyl[1,4]diazepan-1-ylmethyl)benzenesulfonyl]-3-methyl-1H-indole dihydrochloride]: the inhibition at 0.1 µM on Human 5-HT6 receptor (100 nM test compound) stood at 92.2%.

Molecule `COc1ccc2c(ccn2S(=O)(=O)c2ccc(Br)c(CN3CCN(C)CC3)c2)c1` [Example 2, 1-[4-Bromo-3-(4-methylpiperazin-1-ylmethyl)benzenesulfonyl]-5-methoxy-1H-indole] registered a melting point of 115.2 to 120 °C.

`CCN1CCN(Cc2cc(S(=O)(=O)n3cc(C)c4ccccc43)ccc2Cl)CC1.Cl.Cl` yielded a melting point of 218.9 to 220.5 °C.

Turning to `COc1ccc2c(ccn2S(=O)(=O)c2ccc(C)c(CN3CCN(C)CC3)c2)c1.Cl.Cl` [Example 24, 1-[4-methyl-3-(4-methylpiperazin-1-ylmethyl)benzenesulfonyl]-5-methoxy-1H-indole dihydrochloride], the melting point fell in the range of 198.1 to 199.3 °C. The inhibition at 0.1 µM on Human 5-HT6 receptor (100 nM test compound) was 62.2%.

In the case of `CCN1CCN(Cc2cc(S(=O)(=O)n3cc(C)c4cc(OC)ccc43)ccc2Cl)CC1.Cl.Cl` [Example 30, 1-[4-Chloro-3-(4-ethylpiperazin-1-ylmethyl)benzenesulfonyl]-5-methoxy-3-methyl-1H-indole dihydrochloride], the melting point lay in the range of 217.5 to 220.8 °C. Also, the inhibition at 0.1 µM on Human 5-HT6 receptor (100 nM test compound) amounted to 68%.

With `COc1ccc2c(ccn2S(=O)(=O)c2ccc(Cl)c(CN3CCN(C)CC3)c2)c1.Cl.Cl` [Example 16, 1-[4-Chloro-3-(4-methylpiperazin-1-ylmethyl)benzenesulfonyl]-5-methoxy-1H-indole dihydrochloride], the melting point was in the range of 208.8 to 210.2 °C. On Human 5-HT6 receptor (100 nM test compound), the inhibition at 0.1 µM was found to be 42%.

Regarding `CCN1CCN(Cc2cc(S(=O)(=O)n3ccc4cc(OC)ccc43)ccc2Br)CC1` [Example 3, 1-[4-Bromo-3-(4-ethylpiperazin-1-ylmethyl)benzenesulfonyl]-5-methoxy-1H-indole], the melting point is 196.1 to 198.6 °C. Also, the inhibition at 0.1 µM at Human 5-HT6 receptor (100 nM test compound) was 50.5%.

Take `COc1ccc2c(c1)c(C)cn2S(=O)(=O)c1ccc(Cl)c(CN2CCN(C)CC2)c1.Cl.Cl`: the melting point is 213.3 to 214.2 °C.

`CN1CCN(Cc2cccc(S(=O)(=O)n3ccc4cc(F)ccc43)c2)CC1` [Example 10, 5-Fluoro-1-[3-(4-methylpiperazin-1-ylmethyl)benzenesulfonyl]-1H-indole]: on Human 5-HT6 receptor (100 nM test compound), the inhibition at 0.1 µM was 79.2%.

Molecule `CCN1CCN(Cc2cc(S(=O)(=O)n3cc(C)c4ccccc43)ccc2Br)CC1.Cl.Cl` [Example 39, 1-[4-Bromo-3-(4-ethylpiperazin-1-ylmethyl)benzenesulfonyl]-3-methyl-1H-indole dihydrochloride] yielded a melting point of 204.1 to 206.5 °C. The inhibition at 0.1 µM on Human 5-HT6 receptor (100 nM test compound) is 91.5%.

Molecule `CCN1CCN(Cc2cc(S(=O)(=O)n3ccc4cc(Br)ccc43)ccc2Br)CC1.Cl.Cl` [Example 37, 1-[4-Bromo-3-(4-ethylpiperazin-1-ylmethyl)benzenesulfonyl]-5-bromo-1H-indole dihydrochloride] gave a melting point of 205.1 to 207.1 °C. Also, on Human 5-HT6 receptor (100 nM test compound), the inhibition at 0.1 µM was found to be 55.9%.

For `CCN1CCN(Cc2cc(S(=O)(=O)n3ccc4cc(OC)ccc43)ccc2C)CC1.Cl.Cl`, the melting point came out at 160.94 °C.

As to `CN1CCN(Cc2cc(S(=O)(=O)n3ccc4cc(F)ccc43)ccc2Br)CC1.Cl.Cl`, the melting point was 219.4 to 221.6 °C.

On to `CN1CCN(Cc2cc(S(=O)(=O)n3ccc4cc(Br)ccc43)ccc2Br)CC1.Cl.Cl`, for which the melting point lay within 208.2 to 209.2 °C.

`CN1CCN(Cc2cc(S(=O)(=O)n3cc(Br)c4cc(F)ccc43)ccc2Cl)CC1` [Example 5, 1-[4-Chloro-3-(4-methylpiperazin-1-ylmethyl)benzenesulfonyl]-5-fluoro-3-bromo-1H-indole] yielded a melting point of 161.3 to 162.6 °C.

`CCN1CCN(Cc2cc(S(=O)(=O)n3ccc4cc(OC)ccc43)ccc2Cl)CC1.Cl.Cl` [Example 18, 1-[4-Chloro-3-(4-ethylpiperazin-1-ylmethyl)benzenesulfonyl]-5-methoxy-1H-indole dihydrochloride] returned a melting point of 209.5 to 211 °C. In addition, the inhibition at 0.1 µM at Human 5-HT6 receptor (100 nM test compound) came out at 55.7%.

Consider `CCN1CCN(Cc2cc(S(=O)(=O)n3ccc4ccccc43)ccc2Br)CC1` [Example 1, 1-1-[4-Bromo-3-(4-ethylpiperazin-1-ylmethyl)benzenesulfonyl]-1H-indole], for which, on Human 5-HT6 receptor (100 nM test compound), the “% Inhibition of specific binding at 100 nM” value is reported as 78.91%.

As to `CN1CCN(Cc2cc(S(=O)(=O)n3ccc4c(Cl)cccc43)ccc2Cl)CC1.Cl.Cl` [Example 20, 1-[4-Chloro-3-(4-methylpiperazin-1-ylmethyl)benzenesulfonyl]-4-chloro-1H-indole dihydrochloride], the melting point was in the range of 242.7 to 244.3 °C. In addition, the inhibition at 0.1 µM on Human 5-HT6 receptor (100 nM test compound) was determined as 85.2%.

On to `COc1ccc2c(ccn2S(=O)(=O)c2cccc(CN3CCN(C)CC3)c2)c1` [Example 9, 5-Methoxy-1-[3-(4-methylpiperazin-1-ylmethyl)benzenesulfonyl]-1H-indole], for which the inhibition at 0.1 µM at Human 5-HT6 receptor (100 nM test compound) was 67.6%.

`COc1ccc2c(c1)c(C)cn2S(=O)(=O)c1ccc(C)c(CN2CCN(C)CC2)c1.Cl.Cl` showed a melting point of 190.32 °C.

Take `CCOc1ccc2c(ccn2S(=O)(=O)c2cccc(CN3CCN(C)CC3)c2)c1` [Example 11, 5-Ethoxy-1-[3-(4-methylpiperazin-1-ylmethyl)benzenesulfonyl]-1H-indole]: the inhibition at 0.1 µM at Human 5-HT6 receptor (100 nM test compound) came out at 63.7%.

The term melting point denotes the temperature, or range, at which the solid turns liquid. As usually defined, the inhibition is the drop in the measured response relative to a control, in per cent. Usually Ki stands for a measure of affinity in units of concentration, obtained from inhibition or displacement.

These data come from patent publication US8318725B2, “Aryl indolyl sulfonamide compounds and their use as 5-HT6 ligands” (Suven Life Sciences Limited, priority 2008, dated 2012).
